# Experimental data reported in patent publication US11566007B2, “Ras inhibitors” (Revolution Medicines, Inc., priority 2019, dated 2023).
# Where two headings read alike, the source gives them in different places.
# Columns and labels:
# [1] = test system: NCI-H358 cells (K-Ras G12C); assay: Potency assay: pERK in NCI-H358 cells; assay type: cell-based, human; conditions: H358 KRAS G12C, read-out: pERK EC50
# In short: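 pERK decrease read by AlphaLISA SureFire p-ERK1/2 or In-Cell Western after 4 h compound exposure at 37 °C, 5% CO2.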
# KRAS WT = KRAS WT (Homo sapiens (Human), UniProt P01116+P62937); assay: Ras-Raf (BRAF RBD) disruption / FRET / MOA assay, KRAS WT; assay type: biochemical; conditions: read-out: IC50* KRAS WT FRET data
# In short: (§1)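 TR-FRET read-out: a drop in ratio relative to DMSO wells marks disruption of the Ras:RAF complex, reported as IC50. Compounds (3-fold series, 10 points, top 30 μM final) incubated 3 h at 25° C before Eu-anti-His 10 nM and APC-anti-GST 50 nM, 1.5 h more.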
# NCI-H358 (K-Ras G12C) = assay: CellTiter-Glo cell viability assay, NCI-H358; assay type: cell-based, human; conditions: Homo sapiens, NCI-H358, 120 h, NCI-H358, 5-day treatment; class symbols; read-out: Additional H358 Cell Viability assay data (K-Ras G12C, IC50)
# In short: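 Cells seeded, compound added directly, 5-day exposure. Plates to RT ~30 min, CellTiter-Glo luminescence read. Normalized to DMSO avg (x100); 4-parameter logistic fit.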
# KRAS G12V = KRAS G12V (Homo sapiens (Human), UniProt P01116+P62937, G12V); assay: Ras-Raf (BRAF RBD) disruption / FRET / MOA assay, KRAS G12V; assay type: biochemical; conditions: read-out: IC50* KRAS G12V FRET data
# In short: as §1
# KRAS G12D = KRAS G12D (Homo sapiens (Human), UniProt P01116+P62937, G12D); assay: Ras-Raf (BRAF RBD) disruption / FRET / MOA assay, KRAS G12D; assay type: biochemical; conditions: Ras-Raf disruption/FRET/MOA assay; class symbols; read-out: KRAS G12D FRET data IC50
# In short: as §1
# K-Ras G12C = K-Ras G12C (Homo sapiens (Human), UniProt P01116+P62937, G12C); assay: Ras-Raf (BRAF RBD) disruption / FRET / MOA assay, KRAS G12C; assay type: biochemical; conditions: KRAS G12C; Ras-Raf disruption/FRET/MOA assay; read-out: IC50* KRAS G12C FRET data
# In short: as §1
# K-Ras G13C = K-Ras G13C (Homo sapiens (Human), UniProt P01116+P62937, G13C); assay: Ras-Raf (BRAF RBD) disruption / FRET / MOA assay, KRAS G13C; assay type: biochemical; conditions: KRAS G13C; Ras-Raf disruption/FRET/MOA assay; read-out: IC50* KRAS G13C FRET data
# In short: as §1
# KRAS G13D = KRAS G13D (Homo sapiens (Human), UniProt P01116+P62937, G13D); assay: Ras-Raf (BRAF RBD) disruption / FRET / MOA assay, KRAS G13D; assay type: biochemical; conditions: read-out: IC50* KRAS G13D FRET data
# In short: as §1
# NRAS G12C = NRAS G12C (Homo sapiens (Human), UniProt P01111+P62937, G12C); assay: Ras-Raf (BRAF RBD) disruption / FRET / MOA assay, NRAS G12C; assay type: biochemical; conditions: read-out: IC50* NRAS G12C FRET data
# In short: as §1
# KRAS G12S = KRAS G12S (Homo sapiens (Human), UniProt P01116+P62937, G12S); assay: Ras-Raf (BRAF RBD) disruption / FRET / MOA assay, KRAS G12S; assay type: biochemical; conditions: Ras-Raf disruption/FRET/MOA assay; class symbols; read-out: KRAS G12S FRET data IC50
# In short: as §1
# Sequence of K-Ras G13C (P01116-2 other isoform, or with tags, fused parts or gaps G13C): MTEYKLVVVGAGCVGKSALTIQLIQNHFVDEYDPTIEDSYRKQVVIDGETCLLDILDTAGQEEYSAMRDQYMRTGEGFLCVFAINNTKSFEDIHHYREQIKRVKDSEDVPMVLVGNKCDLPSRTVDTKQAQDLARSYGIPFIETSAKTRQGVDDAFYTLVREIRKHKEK
# Sequence of K-Ras G13C (P62937 whole entry): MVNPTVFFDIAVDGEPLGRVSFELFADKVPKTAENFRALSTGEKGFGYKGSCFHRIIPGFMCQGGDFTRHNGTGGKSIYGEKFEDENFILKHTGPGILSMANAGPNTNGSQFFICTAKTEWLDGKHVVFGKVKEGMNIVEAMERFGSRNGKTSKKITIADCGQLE
# Sequence of KRAS G13D (P01116-2 other isoform, or with tags, fused parts or gaps G13D): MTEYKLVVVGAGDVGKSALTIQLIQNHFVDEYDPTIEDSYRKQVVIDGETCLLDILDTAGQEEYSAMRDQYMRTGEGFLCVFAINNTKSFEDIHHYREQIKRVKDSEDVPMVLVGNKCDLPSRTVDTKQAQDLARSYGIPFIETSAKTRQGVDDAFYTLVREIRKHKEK
# Sequence of KRAS G13D (P62937 whole entry): as the sequence (P62937 whole entry) above
# Sequence of KRAS G12S (P01116-2 other isoform, or with tags, fused parts or gaps G12S): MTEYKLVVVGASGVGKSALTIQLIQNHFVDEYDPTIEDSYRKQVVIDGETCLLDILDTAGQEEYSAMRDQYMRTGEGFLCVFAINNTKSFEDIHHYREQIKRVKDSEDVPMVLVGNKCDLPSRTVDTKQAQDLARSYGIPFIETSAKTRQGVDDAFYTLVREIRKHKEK
# Sequence of KRAS G12S (P62937 whole entry): as the sequence (P62937 whole entry) above
# Sequence of KRAS G12D (P01116-2 other isoform, or with tags, fused parts or gaps G12D): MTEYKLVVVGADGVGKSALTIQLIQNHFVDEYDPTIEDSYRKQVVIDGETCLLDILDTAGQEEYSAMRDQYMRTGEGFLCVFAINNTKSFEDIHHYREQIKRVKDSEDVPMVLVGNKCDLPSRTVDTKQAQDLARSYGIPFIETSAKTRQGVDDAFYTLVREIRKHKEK
# Sequence of KRAS G12D (P62937 whole entry): as the sequence (P62937 whole entry) above
# Sequence of K-Ras G12C (P01116-2 other isoform, or with tags, fused parts or gaps G12C): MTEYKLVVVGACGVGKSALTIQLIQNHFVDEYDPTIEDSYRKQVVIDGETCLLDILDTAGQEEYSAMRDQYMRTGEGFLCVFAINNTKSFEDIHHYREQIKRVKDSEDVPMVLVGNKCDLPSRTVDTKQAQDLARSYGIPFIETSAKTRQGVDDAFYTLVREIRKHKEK
# Sequence of K-Ras G12C (P62937 whole entry): as the sequence (P62937 whole entry) above
# Sequence of KRAS WT (P01116-2 other isoform, or with tags, fused parts or gaps): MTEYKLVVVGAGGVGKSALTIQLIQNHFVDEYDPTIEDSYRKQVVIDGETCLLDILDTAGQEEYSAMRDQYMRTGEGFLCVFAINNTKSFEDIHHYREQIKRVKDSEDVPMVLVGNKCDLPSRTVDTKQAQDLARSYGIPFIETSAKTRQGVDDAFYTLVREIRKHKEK
# Sequence of KRAS WT (P62937 whole entry): as the sequence (P62937 whole entry) above
# Sequence of NRAS G12C (P01111 whole entry G12C): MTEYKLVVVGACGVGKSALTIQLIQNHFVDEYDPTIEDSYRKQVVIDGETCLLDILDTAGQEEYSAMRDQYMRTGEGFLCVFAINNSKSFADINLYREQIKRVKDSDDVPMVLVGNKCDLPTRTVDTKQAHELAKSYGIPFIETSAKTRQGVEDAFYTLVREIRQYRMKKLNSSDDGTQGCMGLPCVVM
# Sequence of NRAS G12C (P62937 whole entry): as the sequence (P62937 whole entry) above
# Sequence of KRAS G12V (P01116-2 other isoform, or with tags, fused parts or gaps G12V): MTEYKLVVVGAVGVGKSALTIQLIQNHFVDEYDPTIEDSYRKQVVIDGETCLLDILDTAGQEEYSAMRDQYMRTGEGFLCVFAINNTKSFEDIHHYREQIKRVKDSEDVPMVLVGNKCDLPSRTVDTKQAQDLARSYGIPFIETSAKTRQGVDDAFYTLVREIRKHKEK
# Sequence of KRAS G12V (P62937 whole entry): as the sequence (P62937 whole entry) above
Compound,"EC50 ([1]; Homo sapiens, NCI-H358) [nM]",IC50 (KRAS WT) [nM],IC50 (NCI-H358 (K-Ras G12C)) [nM],IC50 (KRAS G12V) [nM],IC50 (KRAS G12D) [nM],IC50 (K-Ras G12C) [nM],IC50 (K-Ras G13C) [nM],IC50 (KRAS G13D) [nM],IC50 (NRAS G12C) [nM],IC50 (KRAS G12S) [nM],EC50 [1] [nM]
CCn1c(-c2cccnc2[C@H](C)OC)c2c3cc(ccc31)-c1cccc(c1)C[C@H](NC(=O)[C@H](C(C)C)N(C)C(=O)[C@H]1CCN(C(=O)C#C[C@]3(C)CCCN3C)C1)C(=O)N1CCC[C@H](N1)C(=O)OCC(C)(C)C2 [Example A317],< 5000,1000 to 10000,< 10,1000 to 10000,> 10000,< 10,1000 to 10000,> 10000,10 to 100,1000 to 10000,–
"CCn1c(-c2ccccc2CN(C)C)c2c3cc(ccc31)-c1cc(O)cc(c1)C[C@H](NC(=O)[C@H](C(C)C)N(C)C(=O)c1ncc(NC(=O)/C=C/CN(C)C)s1)C(=O)N1CCC[C@H](N1)C(=O)OCC(C)(C)C2 (atropisomer, axis not shown) [Example A163]",< 5000,1000 to 10000,> 1000,> 10000,1000 to 10000,1000 to 10000,10 to 100,1000 to 10000,1000 to 10000,> 10000,–
"C=CC(=O)N1CC[C@@](C#N)(C(=O)N(C)[C@H](C(=O)N[C@H]2Cc3cccc(c3)-c3ccc4c(c3)c(c(-c3cccnc3[C@H](C)OC)n4CC)CC(C)(C)COC(=O)[C@@H]3CCCN(N3)C2=O)C(C)C)C1 (atropisomer, axis not shown) [Example A444]",< 5000,1000 to 10000,< 10,100 to 1000,1000 to 10000,10 to 100,100 to 1000,1000 to 10000,10 to 100,1000 to 10000,–
C#CC(=O)N1CC[C@H](C(=O)N(C)[C@H](C(=O)N[C@H]2Cc3cc(O)cc(c3)-c3ccc4c(c3)c(c(-c3cnccc3[C@H](C)OC)n4CC)CC(C)(C)COC(=O)[C@@H]3CCCN(N3)C2=O)C(C)C)C1 [Example A150],< 5000,100 to 1000,< 10,100 to 1000,1000 to 10000,10 to 100,10 to 100,100 to 1000,10 to 100,100 to 1000,–
"C=CC(=O)N1CCN(C(=O)N(C)[C@H](C(=O)N[C@H]2Cc3nc(cs3)-c3ccc4c(c3)c(c(-c3cccnc3[C@H](C)OC)n4CC)CC(C)(C)COC(=O)[C@@H]3CCCN(N3)C2=O)C(C)C)C[C@@H]1C (atropisomer, axis not shown) [Example A433]",< 5000,10 to 100,10 to 100,100 to 1000,100 to 1000,10 to 100,10 to 100,100 to 1000,10 to 100,10 to 100,–
"C=CC(=O)N1CCC2(CC1)OCN([C@H](C(=O)N[C@H]1Cc3cccc(c3)-c3ccc4c(c3)c(c(-c3cccnc3[C@H](C)OC)n4CC)CC(C)(C)COC(=O)[C@@H]3CCCN(N3)C1=O)C(C)C)C2=O (atropisomer, axis not shown) [Example A457]",< 5000,100 to 1000,10 to 100,1000 to 10000,> 10000,100 to 1000,100 to 1000,1000 to 10000,100 to 1000,1000 to 10000,–
"C=CC(=O)N1CC(C(=O)N(C)[C@H](C(=O)N[C@H]2Cc3cc(O)cc(c3)-c3ccc4c(c3)c(c(-c3cccnc3[C@H](C)OC)n4CC)CC(C)(C)COC(=O)[C@@H]3CCCN(N3)C2=O)C(C)C)C1 (atropisomer, axis not shown) [Example A256]",< 5000,10 to 100,< 10,100 to 1000,100 to 1000,< 10,10 to 100,100 to 1000,10 to 100,10 to 100,–
"CC#CC(=O)N1CC[C@@]2(CCN([C@H](C(=O)N[C@H]3Cc4nc(cs4)-c4ccc5c(c4)c(c(-c4cccnc4[C@H](C)OC)n5CC)CC(C)(C)COC(=O)[C@@H]4CCCN(N4)C3=O)C(C)C)C2=O)C1 (atropisomer, axis not shown) [Example A535]",< 5000,> 10000,10 to 100,> 10000,> 10000,1000 to 10000,1000 to 10000,> 10000,1000 to 10000,1000 to 10000,–
"C=CC(=O)Nc1cnc(C(=O)N(C)[C@H](C(=O)N[C@H]2Cc3cc(O)cc(c3)-c3ccc4c(c3)c(c(-c3cccnc3[C@H](C)OC)n4CC)CC(C)(C)COC(=O)[C@@H]3CCCN(N3)C2=O)C(C)C)n1C (atropisomer, axis not shown) [Example A255]",–,100 to 1000,< 10,100 to 1000,100 to 1000,< 10,< 10,100 to 1000,< 10,10 to 100,< 5000
CCn1c(-c2cccnc2[C@H](C)OC)c2c3cc(ccc31)-c1cc(O)cc(c1)C[C@H](NC(=O)[C@H](C(C)C)N(C)C(=O)c1ncc(NC(=O)/C=C/CN(C)C)n1C)C(=O)N1CCC[C@H](N1)C(=O)OCC(C)(C)C2 [Example A529],< 5000,100 to 1000,10 to 100,100 to 1000,100 to 1000,< 10,< 10,100 to 1000,< 10,100 to 1000,–
CCn1c(-c2cccnc2COC)c2c3cc(ccc31)-c1cc(O)cc(c1)C[C@H](NC(=O)[C@H](C(C)C)N(C)C(=O)[C@H]1CCN(C(=O)C#CCN3[C@H](C)COC[C@@H]3C)C1)C(=O)N1CCC[C@H](N1)C(=O)OCC(C)(C)C2 [Example A237],< 5000,1000 to 10000,< 10,100 to 1000,1000 to 10000,10 to 100,100 to 1000,1000 to 10000,10 to 100,100 to 1000,–
"CC#CC(=O)N1CC[C@]2(CCN([C@H](C(=O)N[C@H]3Cc4cccc(c4)-c4ccc5c(c4)c(c(-c4cccnc4[C@H](C)OC)n5CC)CC(C)(C)COC(=O)[C@@H]4CCCN(N4)C3=O)C(C)C)C2=O)C1 (atropisomer, axis not shown) [Example A412]",< 5000,1000 to 10000,10 to 100,1000 to 10000,1000 to 10000,100 to 1000,100 to 1000,1000 to 10000,100 to 1000,1000 to 10000,–
